One block for each compound: values may come before it. Where a SMILES comes first, the peptide text is derived from it. [ ]: non-standard residue; d: D form. Thyronine(3,5,3'-I3) = N[C@@H](Cc1cc(I)c(Oc2ccc(O)c(I)c2)c(I)c1)C(=O)O
What was measured:
[1] = design: species or system Sprague-dawley rats; details: rat, in vivo
Procedure: (§1) Compounds were tested in Sprague-dawley rats (˜250 g). […] Rats were dosed immediately following 0 hour serum collection.

[2] = Solid dose oral delivery, total T3 serum concentration AUC
[3] = rat, in vivo
[4] = Solution dose oral delivery, T4 N-capped trimer vs. T4 sodium salt, total serum T4; design: species or system Sprague-dawley rats; details: rat, in vivo
Procedure: as §1

[5] = biological target: amidase (EC 3.5.1.4; from Pseudomonas aeruginosa) (Pseudomonas aeruginosa, UniProt P11436); details: Table 1; 37° C., 24 hours
Sequence of amidase (EC 3.5.1.4; from Pseudomonas aeruginosa) (P11436 whole entry): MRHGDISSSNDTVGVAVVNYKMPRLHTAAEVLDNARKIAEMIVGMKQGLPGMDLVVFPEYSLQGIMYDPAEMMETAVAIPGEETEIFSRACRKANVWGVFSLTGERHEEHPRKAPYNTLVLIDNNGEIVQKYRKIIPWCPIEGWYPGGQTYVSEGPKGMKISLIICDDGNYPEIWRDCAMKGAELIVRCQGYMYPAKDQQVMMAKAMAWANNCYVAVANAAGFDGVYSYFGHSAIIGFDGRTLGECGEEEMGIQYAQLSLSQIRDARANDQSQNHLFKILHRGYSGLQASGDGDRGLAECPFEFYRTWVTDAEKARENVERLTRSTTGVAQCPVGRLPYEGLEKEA

increase of Cmax as compared to T3 sodium salt [1]: 65.2%
increase of mean AUC relative to the T3 sodium salt AUC [1]: 50.3%
increase of Δmax relative to the Δmax of T3 sodium salt [1]: 75.9%
total AUC divided by total AUC for T3 sodium ([2]; Study No. 11, rats): 123%
total AUC divided by total AUC for T3 sodium ([2]; Study No. 11, rats, listed as N-Capped Trimer): (123%)
total AUC divided by total AUC for T3 sodium ([2]; Study No. 17, rats): (102%)
increase of Cmax over the corresponding T3 sodium salt control [3]: 50.8%
increase of mean AUC relative to the corresponding T3 sodium salt control [3]: 72.1%
increase of Δmax over the corresponding T3 sodium salt control [3]: 85.6%
SMILES: N[C@@H](Cc1cc(I)c(Oc2ccc(O)c(I)c2)c(I)c1)C(=O)N[C@@H](CCC(=O)O)C(=O)N[C@@H](CCC(=O)O)C(=O)O [T3 N-capped trimer, H-(T3)EE-OH]

Tmax (time to reach maximal concentration) ([4]; Sprague-Dawley, po): 10.2 h
increase of Cmax as compared to the sodium salt [4]: 48%
increase of mean AUC relative to the T4 sodium salt AUC [4]: 115%
increase of Δmax (Δ at Cmax) relative to the Δmax of T4 sodium salt [4]: 68%
Cmax +/− SD ([4]; po): 13.0 ± 0.6 ng/dL
Cmax, Percent of T4 sodium salt ([4]; po): 148%
Delta @ Cmax (change in total T4 serum levels from 0 hour level) ([4]; po): 6.7 ± 1.5 ng/dL
Delta @ Cmax, Percent of T4 sodium salt ([4]; po): 168%
SMILES: N[C@@H](Cc1cc(I)c(Oc2cc(I)c(O)c(I)c2)c(I)c1)C(=O)N[C@@H](CCC(=O)O)C(=O)N[C@@H](CCC(=O)O)C(=O)O [T4 N-capped trimer]

enzymatic release of T3, Amidase [5]: 0.0
SMILES: CCCCCCCC(=O)N[C@@H](Cc1cc(I)c(Oc2ccc(OC(=O)CCCCCCC)c(I)c2)c(I)c1)C(=O)O [C8T3(C8), N-Octanoyl-L-triiodothyronine(O-octanoyl)]

total AUC divided by total AUC for T3 sodium ([2]; Study No. 13, rats): (89%)
SMILES: N[C@@H](CCC(=O)O)C(=O)N[C@@H](CCC(=O)O)C(=O)N[C@@H](Cc1cc(I)c(Oc2ccc(O)c(I)c2)c(I)c1)C(=O)O [C-Capped Trimer]

total AUC divided by total AUC for T3 sodium ([2]; Study No. 13, rats): (81%)
SMILES: N[C@@H](CCC(=O)O)C(=O)N[C@@H](Cc1cc(I)c(Oc2ccc(O)c(I)c2)c(I)c1)C(=O)O [C-Capped Dimer]

SMILES: CCCCCCCCCCCCCCCC(=O)Oc1ccc(Oc2c(I)cc(CC(N)C(=O)O)cc2I)cc1I.O=C(O)C(F)(F)F (centres unmarked) [T3C16, Trioodothyronine Hexadeconoate—TFA]
enzymatic release of T3, Amidase [5]: 1.2

SMILES: N[C@@H](CCC(=O)O)C(=O)N[C@@H](CCC(=O)O)C(=O)N[C@@H](CCC(=O)O)C(=O)N[C@@H](CCC(=O)O)C(=O)N[C@@H](CCC(=O)O)C(=O)N[C@@H](CCC(=O)O)C(=O)N[C@@H](CCC(=O)O)C(=O)N[C@@H](CCC(=O)O)C(=O)N[C@@H](CCC(=O)O)C(=O)N[C@@H](CCC(=O)O)C(=O)N[C@@H](CCC(=O)O)C(=O)N[C@@H](CCC(=O)O)C(=O)N[C@@H](CCC(=O)O)C(=O)N[C@@H](CCC(=O)O)C(=O)N[C@@H](CCC(=O)O)C(=O)N[C@@H](Cc1cc(I)c(Oc2ccc(O)c(I)c2)c(I)c1)C(=O)N[C@@H](CCC(=O)O)C(=O)N[C@@H](CCC(=O)O)C(=O)N[C@@H](CCC(=O)O)C(=O)N[C@@H](CCC(=O)O)C(=O)O [20-Mer] (H-EEEEEEEEEEEEEEE[Thyronine(3,5,3'-I3)]EEEE-OH)
total AUC divided by total AUC for T3 sodium ([2]; Study No. 12, rats): (69%)

total AUC divided by total AUC for T3 sodium ([2]; Study No. 11, rats): (104%)
SMILES: N[C@@H](Cc1cc(I)c(Oc2ccc(O)c(I)c2)c(I)c1)C(=O)N[C@@H](CCC(=O)O)C(=O)O [N-Capped Dimer]

Reference: US7163918B2, “Iodothyronine compositions” (New River Pharmaceuticals Inc., priority 2000, dated 2007)
